Source: patent US6727038B1, “Photodefineable compositions” (Dow Global Technologies Inc., priority 1995, dated 2004)

Experiments:
Assay type in all cases: physicochemical
[1] = Solubility of bis azides in mesitylene and in DVS resin/mesitylene mixture; settings: for Solubility In Mesitylene: in mesitylene at 25° C.; for Solubility In Mixture: mixture of 45 weight percent DVS resin in mesitylene at 10° C., weight percent based on total weight of mixture
Experimental: The solubility of various bis azides are determined in mesitylene at 25° C. and in a mixture of 45 weight percent DVS resin in mesitylene at 10° C. The results are shown in Table I. BAC-M is 2,6-bis(4-azidobenzylidene)-4-methylcyclohexanone and differs from the bis azide of the invention by having a methyl substituent on the cyclohexanone ring instead of ethyl. BAC-P is 2,6-bis(4-azidobenzylidene)-4-n-propyl cyclohexanone and differs from the bis azide of the invention by having an n-propyl substituent on the cyclohexanone ring instead of ethyl. The weight percent in the mixture is calculated based on the total weight of mixture.

[2] = Storage at -15° C., precipitate formation
Experimental: A formulation containing 3.6 weight percent BAC-E in a mixture of 45 weight percent DVS resin in mesitylene is stored for more than five months at −15° C. […] A formulation containing 4.05 weight percent BAC-E in a mixture of 45 weight percent DVS resin in mesitylene is stored at −15° C. A precipitate forms in three days. A formulation containing 2.0 weight percent BAC-M in a mixture of 45 weight percent DVS resin in mesitylene is stored at −15° C. A precipitate forms in less than ten days.

[3] = Speed of dissolution in DVS resin/mesitylene; settings: shaken at room temperature
Experimental: BAC-E, up to four weight percent, is added to a mixture of 45 weight percent DVS resin in mesitylene and shaken at room temperature. The BAC-E dissolves in thirty minutes. BAC-M, at 2.0 weight percent is added to a mixture of 45 weight percent DVS resin in mesitylene and shaken at room temperature. The BAC-M requires more than eight hours of shaking to dissolve.

Row | SMILES | Solubility In Mesitylene [1] | Solubility In Mixture [1] | precipitate formation on storage ([2]; 3.6 weight percent BAC-E in 45 weight percent DVS resin in mesitylene, stored more than five months at -15° C.) | time to dissolve ([3]; up to four weight percent in 45 weight percent DVS resin in mesitylene) | time until a precipitate forms ([2]; 2.0 weight percent BAC-M in 45 weight percent DVS resin in mesitylene, stored at -15° C.) | time of shaking to dissolve ([3]; 2.0 weight percent in 45 weight percent DVS resin in mesitylene)
1 | CCC1C/C(=C\c2ccc(N=[N+]=[N-])cc2)C(=O)/C(=C/c2ccc(N=[N+]=[N-])cc2)C1 (stereo not shown) [BAC-E, 2,6-bis(4-azidobenzylidene)-4-ethylcyclohexanone] | 14 g/100 mL | 10.4 Wt % | No precipitate forms | thirty |  | 
2 | CC1CC(=Cc2ccc(N=[N+]=[N-])cc2)C(=O)C(=Cc2ccc(N=[N+]=[N-])cc2)C1 (stereo not shown) [BAC-M, 2,6-bis(4-azidobenzylidene)-4-methylcyclohexanone] | 1.7 g/100 mL | 1.0 Wt % |  |  | less than ten | more than eight
3 | CCCC1CC(=Cc2ccc(N=[N+]=[N-])cc2)C(=O)C(=Cc2ccc(N=[N+]=[N-])cc2)C1 (stereo not shown) [BAC-P, 2,6-bis(4-azidobenzylidene)-4-n-propyl cyclohexanone] | 3.5 g/100 mL | 1.7 Wt % |  |  |  | 
